Measurements from patent publication US20110053897A1 (IRM LLC, priority 2009, published 2011).
Like-named read-outs stand apart in the source and are kept apart here.

Molecular target: T1, Syk kinase (Homo sapiens, UniProt P43405)
T1 construct: purchased
Experiment: Syk kinase inhibition, Caliper LabChip off-chip mobility-shift kinase assay
Type: biochemical
Conditions: read-out: Syk Enzyme IC50
Procedure, shortened: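 Purified Syk pre-incubated 15 min with compound in 100 mM HEPES pH 7.5, 1 mM DTT, 10 mM MgCl2 or MnCl2, 0.002% Brij-35, then 1.5 μM fluorescein peptide and ATP at apparent KM added; 1–1.5 h at room temperature, 4% DMSO, EDTA stop. Microfluidic mobility-shift product/substrate conversion gave % inhibition; IC50 from 12-point series (10–0.00003 μM) by 4-parameter fit.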

IC50	IC50 (Caliper LabChip assay)	SMILES
0.748 µM		CCN(CC)CCNC(=O)c1ccc(Nc2nc(Nc3cc(C)ccn3)cc3ccn(C)c(=O)c23)cc1 [compound 331]
2.61 µM		CCCNC(=O)c1ccc(Nc2cc3ccn(C)c(=O)c3c(N)n2)nc1 [compound 575]
0.095 µM		COc1cncc(-c2cc3cc[nH]c(=O)c3c(Nc3ccc(CCCN4CCOCC4)cc3)n2)n1 [compound 40]
	0.682 µM	CC(C)(C)Nc1nc(Nc2cnccn2)cc2c(Cl)cn(CCO)c(=O)c12 [compound 823]
0.059 µM		COCCCN1CCC(c2ccc(Nc3nc(-c4cnc(OC)nc4)cc4cc[nH]c(=O)c34)cc2F)CC1 [compound 196]
0.059 µM		Nc1ncc(-c2cc3cc[nH]c(=O)c3c(N[C@@H]3CCC[C@H]3O)n2)cn1 [compound 184]
0.201 µM		CCC(C)Nc1nc(Nc2cc(C)ccn2)cc2cc[nH]c(=O)c12 (stereo not drawn) [compound 262]
0.058 µM		Cc1cc(Nc2nc(Nc3ccc(C(N)=O)cn3)cc3cc[nH]c(=O)c23)ccc1C1CCN(C2CC2)CC1 [compound 251]
0.078 µM		CCOCCN1CCC(c2ccc(Nc3nc(-c4cncc(OC)n4)cc4cc[nH]c(=O)c34)cc2C)CC1 [compound 85]
	0.017 µM	CCn1ccc2cc(Nc3cnccn3)nc(N[C@H]3CC[C@H](O)C3)c2c1=O [compound 946]
	0.057 µM	CC(C)(C)Nc1nc(-c2cnc(N)nc2)cc2ccn(C(C)(C)C(N)=O)c(=O)c12 [compound 673]
	0.272 µM	Cc1ccnc(Nc2cc3ccn(C(C)C)c(=O)c3c(NC(C)(C)C)n2)c1 [compound 821]
0.115 µM		CCOCC(=O)N1CCC(c2ccc(Nc3nc(-c4cncc(OC)n4)cc4cc[nH]c(=O)c34)cc2)CC1 [compound 28]
0.07 µM		CCN1CCN(c2n[nH]c3cc(Nc4nc(-c5cnc(OC)nc5)cc5cc[nH]c(=O)c45)ccc23)CC1 [compound 201]
	0.102 µM	CCc1cc(Nc2cc3ccn(CCO)c(=O)c3c(NC(C)(C)C)n2)ncn1 [compound 619, 8-(tert-butylamino)-6-(6-ethylpyrimidin-4-ylamino)-2-(2-hydroxyethyl)-2,7-naphthyridin-1(2H)-one]
	0.202 µM	CCn1ccc2cc(-c3cnc(N)nc3)nc(NS(C)(=O)=O)c2c1=O [compound 744, N-(3-(2-Aminopyrimidin-5-yl)-7-ethyl-8-oxo-7,8-dihydro-2,7-naphthyridin-1-yl)methane sulfonamide]
	0.116 µM	CC(C)(C)Nc1nc(Nc2cc(C3CCN(CCO)CC3)ncn2)cc2ccn(CCO)c(=O)c12 [compound 640]
	0.02 µM	Cc1ccnc(Nc2cc3ccn(C(C)C)c(=O)c3c(N[C@H]3CC[C@@H](O)C3)n2)c1 [compound 977]
0.12 µM		C[C@@H](CO)Nc1nc(Nc2cnccn2)cc2ccn(C)c(=O)c12 [compound 327]
	< 0.00127 µM	CC(C)(C)Nc1nc(Nc2cc(C(F)(F)CO)ccn2)cc2ccn(CCO)c(=O)c12 [compound 871]
	0.005 µM	O=c1[nH]ccc2cc(Nc3cnccn3)nc(N[C@H]3CC[C@H](O)CC3)c12 [compound 976]
7.44 µM		CCn1ccc2cc(Nc3cncnc3C)nc(NC(C)C)c2c1=O [compound 348]
0.201 µM		Cc1ccnc(Nc2cc3cc[nH]c(=O)c3c(NCC3CC3)n2)c1 [compound 285]
0.128 µM		CCn1ccc2cc(Nc3cnccn3)nc(N[C@H]3CCCC[C@H]3O)c2c1=O (racemic) [compound 409]

IC50	IC50 (Caliper LabChip assay)	SMILES
	0.615 µM	CC(C)(C)Nc1nc(Nc2cc(N3CCCC(O)C3)ccn2)cc2ccn(CCO)c(=O)c12 (stereo not drawn) [compound 848]
0.754 µM		CCOC(C)c1cc2cc[nH]c(=O)c2c(Nc2ccc(N3CCO[C@H](C)C3)c(C)c2)n1 (stereo partly drawn) [compound 233]
0.042 µM		CN(C)CCn1ccc2cc(Nc3cc(Cl)ccn3)nc(N[C@H]3CC[C@@H](O)CC3)c2c1=O [compound 388]
0.556 µM		CCCc1cc2cc[nH]c(=O)c2c(Nc2ccc(C3CCN(C4CC4)CC3)c(C)c2)n1 [compound 230]
	0.121 µM	C=Cc1cc(Nc2cc3ccn(CCO)c(=O)c3c(NC(C)(C)C)n2)ncn1 [compound 618, 8-(tert-butylamino)-2-(2-hydroxyethyl)-6-(6-vinylpyrimidin-4-ylamino)-2,7-naphthyridin-1(2H)-one]
	0.059 µM	CC(C)(C)Nc1nc(Nc2cc(CN)ccn2)cc2ccn(CCO)c(=O)c12 [compound 707]
0.344 µM		Cc1cc(-c2cc3cc[nH]c(=O)c3c(Nc3ccc(C4CCN(CCC#N)CC4)c(C)c3)n2)nc(N)n1 [compound 70]
0.18 µM		O=c1[nH]ccc2cc(-c3cncnc3)nc(Nc3ccc(CCn4cncn4)cc3)c12 [compound 34]
0.101 µM		Cn1ccc2cc(Nc3cnccn3)nc(Nc3ccc(C(N)=O)cc3)c2c1=O [compound 468]
	0.06 µM	Cc1ccnc(Nc2cc3ccn(C(C)C)c(=O)c3c(N[C@H]3CC[C@@H](CO)C3)n2)c1 [compound 987]
0.088 µM		C[C@H](O)CNc1nc(-c2cnc(N)nc2)cc2cc[nH]c(=O)c12 [compound 451]
0.129 µM		COc1cncc(-c2cc3cc[nH]c(=O)c3c(Nc3ccc(C4CCN(CC5CC5(F)F)CC4)c(C)c3)n2)n1 (stereo not drawn) [compound 78]
1.96 µM		Cc1ccnc(Nc2cc3cc[nH]c(=O)c3c(NCCN(C)C)n2)c1 [compound 588]
	0.066 µM	Nc1ncc(-c2cc3ccn(CC4(CO)COC4)c(=O)c3c(NC3CCCC3)n2)cn1 [compound 761]
0.1 µM		CCn1ccc2cc(Nc3cnccn3)nc(NC(C)(C)CO)c2c1=O [compound 471]
0.343 µM		CCN1CCN(CCc2ccc(Nc3nc(-c4cncc(OC)n4)cc4c(F)c[nH]c(=O)c34)cc2)CC1 [compound 440]
0.034 µM		CC(C)Nc1nc(Nc2cc(CO)ccn2)cc2cc[nH]c(=O)c12 [compound 510]
	0.019 µM	O=c1c2c(N[C@H]3CC[C@@H](O)CC3)nc(Nc3cnccn3)cc2ccn1C1COC1 [compound 1009]
0.55 µM		Cc1ccnc(Nc2cc3cc[nH]c(=O)c3c(NC3CCN(Cc4ccccc4)C3)n2)c1 (stereo not drawn) [compound 553]
	0.036 µM	CC(C)n1ccc2cc(Nc3cnccn3)nc(N[C@H]3CCC[C@H]3O)c2c1=O [compound 980]
	0.151 µM	CC(C)(C)Nc1nc(Nc2cc(-c3ccno3)ccn2)cc2ccn(CCO)c(=O)c12 [compound 689]
0.031 µM		O=c1[nH]ccc2cc(CCO)nc(Nc3ccc(N4CCOCC4)cc3)c12 [compound 244]
0.089 µM		Cc1ccc(-c2cc3cc[nH]c(=O)c3c(Nc3ccc(C4CCN(C5CC5)CC4)c(C)c3)n2)cn1 [compound 219]
0.39 µM		Cc1ccc(Nc2cc3cc[nH]c(=O)c3c(Nc3ccc(CCN4CCCN(C)CC4)cc3)n2)nc1 [compound 552]

IC50	IC50 (Caliper LabChip assay)	SMILES
	0.008 µM	CC(C)(C)Nc1nc(-c2cnc(N)nc2)cc2ccn(C[C@H](O)CO)c(=O)c12 [compound 935]
0.107 µM		CCN1CCN(CCc2ccc(Nc3nc(-c4cnn(C)c4)cc4c(F)c[nH]c(=O)c34)cc2)CC1 [compound 442]
0.803 µM		CNS(=O)(=O)c1ccc(Nc2nc(Nc3cnccn3)cc3ccn(C)c(=O)c23)cc1 [compound 350]
	0.301 µM	CC(C)(C)Nc1nc(Nc2cnccn2)cc2ccn(Cc3ccncc3)c(=O)c12 [compound 1019]
0.018 µM		CCn1ccc2cc(Nc3cc(C)ccn3)nc(N[C@H]3CC[C@@H](O)CC3)c2c1=O [compound 362]
	0.016 µM	CC(C)n1ccc2cc(Nc3cnccn3)nc(N[C@H]3CC[C@@H](O)C3)c2c1=O [compound 978]
	0.05 µM	CC(C)(C)Nc1nc(-c2cnc(N)nc2)cc2ccn(CC(O)C(F)(F)F)c(=O)c12 (stereo not drawn) [compound 926]
0.097 µM		COC[C@H](C)Nc1nc(Nc2cc(C)ccn2)cc2cc[nH]c(=O)c12 [compound 530]
0.312 µM		O=c1[nH]ccc2cc(Nc3ccccn3)nc(NCC3CC3)c12 [compound 291]
	0.078 µM	COCCOc1cc(Nc2cc3ccn(CC(O)CO)c(=O)c3c(NC(C)(C)C)n2)ncn1 (stereo not drawn) [compound 885]
0.316 µM		CCn1ccc2cc(Nc3cnccn3)nc(N[C@H]3CC[C@@H](O)C3)c2c1=O [compound 425]
0.83 µM		[2H]C([2H])([2H])n1ccc2cc(Nc3cc(Cl)ccn3)nc(NC(C)(C)C)c2c1=O [compound 542]
	0.072 µM	CCn1ccc2cc(Nc3cc(C)ccn3)nc(N[C@@H]3CC[C@H](CO)C3)c2c1=O (stereo in doubt) [compound 789]
	0.102 µM	CC(C)(C)Nc1nc(Nc2cc(-c3cnn(CC(N)=O)c3)ccn2)cc2ccn(CCO)c(=O)c12 [compound 849]
	0.142 µM	CC(C)(C)Nc1nc(Nc2cc(C(O)C(F)(F)F)ccn2)cc2ccn(CC(N)=O)c(=O)c12 (stereo not drawn) [compound 613]
	0.301 µM	CC(C)(C)Nc1nc(Nc2cc(C(C)(C)CO)ccn2)cc2ccn(CCO)c(=O)c12 [compound 863]
0.398 µM		CCOCCc1cc2cc[nH]c(=O)c2c(Nc2ccc(C3CCN(C4CC4)CC3)c(C)c2)n1 [compound 227]
0.257 µM		CCn1ccc2cc(Nc3cc(Cl)ccn3)nc(NC(C)C)c2c1=O [compound 305]
0.048 µM		Cc1ccnc(Nc2cc3cc[nH]c(=O)c3c(NCCCO)n2)c1 [compound 504]
0.122 µM		COc1cncc(-c2cc3cc[nH]c(=O)c3c(Nc3ccc(CCn4cncn4)cc3)n2)n1 [compound 24]
	0.096 µM	COCCn1ccc2cc(Nc3cnccn3)nc(NC(C)(C)C)c2c1=O [compound 1006]
	0.062 µM	C/C(=N\O)c1ccnc(Nc2cc3ccn(CCO)c(=O)c3c(NC(C)(C)C)n2)c1 [compound 685, (E)-8-(tert-butylamino)-2-(2-hydroxyethyl)-6-(4-(1-(hydroxyimino)ethyl)pyridin-2-ylamino)-2,7-naphthyridin-1(2H)-one]
0.415 µM		[2H]C([2H])([2H])n1ccc2cc(Nc3cc(C)c(F)cn3)nc(NC3CC3)c2c1=O [compound 547]
0.702 µM		O=c1[nH]ccc2cc(C3CCSCC3)nc(Nc3ccc(N4CCOCC4)cc3)c12 [compound 15]
